Results reported in patent US8937154B2, “Stabilized therapeutic small helical antiviral peptides” (priority 2006, dated 2015).
Where a SMILES comes first, the peptide text is derived from it. Bridges are numbered along the chain shown (N, C = ends). [ ]: non-standard residue; d: D form. The star is where a group is joined. FITC = O=C1OC2(c3ccc(O)cc3Oc3cc(O)ccc32)c2ccc(NC(=S)*)cc21; R8 = C=CCCCCCC[C@@](C)(N)C(=O)O; S5 = C=CCCC[C@](C)(N)C(=O)O; βAla = NCCC(=O)O

Assays:
[1] = molecular target: N-terminal CA (N-CA) (Human immunodeficiency virus type 1 group M subtype B, UniProt P04591); settings: read-out: affinity (Kd) to N-terminal CA (N-CA); cited from earlier work
[2] = tested on: HIV-1 IIIB; type: cell-based
Description: The inhibitory activity of the constrained peptide described in Example 1 on infection by laboratory-adapted HIV-1 strains was determined as described in Jiang et al. (1991).

[3] = tested on: HIV-1 IIIB; experiment: Western blot of p24 and p55 after treatment of HIV-1 IIIB infected MT-2 cells; type: cell-based; settings: anti-p24 mAb, graded concentrations, vs positive untreated control
Description: Control cells were uninfected MT-2 or infected and untreated MT-2. Following overnight incubation the culture supernatant was completely removed and replaced with fresh medium. On the fourth day post-infection cells and virus supernatants were harvested. The supernatants were filtered and ultra-centrifuged through a 20% sucrose cushion for 2 hr at 27,000 rpm with a SW28 rotor to concentrate the viral particles. Viral pellets were slowly re-suspended and lysed. Cells were collected and processed for protein extraction. […] Proteins were then visualized by Western Blot and immuno-detected with HIV-1 anti-p24 gag mAb.
Same amounts of viral and cellular proteins were immunodetected with an anti-p24 mAb.

[4] = molecular target: CTDM184A/W185A (Human immunodeficiency virus type 1 group M subtype B, UniProt P04591, M317A/W316A); experiment: Isothermal titration calorimetry; set-up: species or system HIV-1; settings: ITC, 25 mM sodium phosphate buffer (pH 7.3), single-binding model
Description: In a typical experiment, the ITC injection syringe was loaded with 625 μM CTDM184A/W185A protein dissolved in the dialysis buffer. […] Typically titrations consisted of 27 injections of 10 μl into the calorimetric cell, with 240-s equilibration between injections. The thermodynamic parameters were obtained and data were analysed using MicroCal Origin 7.0 software.

[5] = Circular dichroism, secondary structure in solution; type: physicochemical; settings: for secondary structure by CD: 25° C., 1×PBS, 1-20% acetonitrile, 100 μM peptide
Description: We used circular dichroism (CD) to characterize the secondary structure of NYAD-1 and CAI in the uncomplexed state in solution. CD spectra were obtained on a Jasco J-715 Spectropolarimeter (Jasco Inc.) at 20° C. using the standard measurement parameters in Tris-HCl buffer (20 mM Tris, pH 8.0) in the presence of 1-15% (v/v) acetonitrile at a final concentration of 125-500 μM. In all the samples, the final concentrations of peptides and salt were always the same, and the spectra were corrected by subtracting the CD spectra of the appropriate reference solvent. Percent α-helix was calculated from molar ellipticity value at 222 nm.
The CD spectra were measured at 25° C. in 1×PBS in the presence of 1-20% (v/v) acetonitrile at a final concentration of peptide of 100 μM.
We used CD spectroscopy to determine the secondary structure characteristics of the stapled peptide NYAD-36. The corresponding linear peptide, NYAD-41, was used as control.

[6] = tested on: HIV-IIIB; experiment: Viral re-infection assay: infectivity of virions released by treated HIV-1 infected MT-2 cells; type: cell-based
Description: The infectivity potential of the virions released by HIV-1 infected MT-2 cells treated with different concentrations of small stapled peptides. […] Control cells were untreated or treated with 1 ug/ml of AMD3100 (CXCR-4 receptor inhibitor). Following overnight incubation the medium was completely removed and replaced with fresh medium. On the fourth day post-infection the supernatants were collected. One aliquot of each sample was mixed 1:1 with a solution of 5% Triton X-100 for p24 quantification, and stored at 4° C., another aliquot was immediately frozen at −80° C. and used to compare the infectivity of the viral particles released by treated cells to the viral particles released by untreated cells. Following p24 quantification by sandwich-ELISA MT-2 cells were infected with viral samples normalized for the p24 content to calculate the TCID50. Following overnight incubation ¾ of the medium containing the inoculum was replaced with fresh medium. On the fourth day post infection supernatants were collected for p24 quantification and the TCID50 was calculated by the Spearman-Karber statistical method.
Therefore, to infect MT-2 cells we used the maximum quantities of supernatants possible.

[7] = tested on: HIV-1 gag-mStrawberry fusion protein; experiment: Direct colocalization with gag by confocal microscopy; type: cell-based; settings: 293T cells transfected with pEF6A-gag-mStrawberry; near the plasma membrane
Description: A direct colocalization study was performed by transfecting 293T cells with pEF6A-gag-mStrawberry for 4 hr and then washing cells once with PBS. A serum-free or serum-containing medium containing FITC-conjugated peptide was added for another 20 hr culture. After three washes, the cells were examined and imaged under a Zeiss LSM510 laser scanning confocal microscope.

[8] = molecular target: T1, C-terminal CA (C-CA) of capsid (Human immunodeficiency virus type 1 group M subtype B, UniProt P04591); settings: estimated, read-out: dissociation constant (Kd); cited from earlier work
T1 construct: targeting the C-terminal CA (C-CA) of capsid

Cc1ccc(NC(=O)NCCSCc2ccc(CN(C)C)o2)cc1Cl [CAP-1]
Kd [1]: ~800 µM

CC[C@H](C)[C@H](N)C(=O)N[C@@H](CO)C(=O)N[C@@H](Cc1ccccc1)C(=O)N[C@@]1(C)CCC/C=C\CCC[C@@](C)(C(=O)N[C@@H](Cc2ccc(O)cc2)C(=O)N[C@@H](Cc2ccc(O)cc2)C(=O)NCC(=O)N[C@@H](CCCNC(=N)N)C(N)=O)NC(=O)[C@H](CC(C)C)NC(=O)[C@H](CC(C)C)NC(=O)[C@H](CCC(=O)O)NC1=O [NYAD-15] (H-ISF[S5]ELL[S5]YYGR-NH2; staple (Z) 4-8; N-terminus and C-terminus assumed)
IC50 [2]: 4.86 ± 1.55 µM
p24 and p55 levels in the cellular preparation [3]: dose-dependent decrease
p24 and p55 levels in the viral preparation (viral lysates) [3]: dose-dependent decrease

CC[C@H](C)[C@H](N)C(=O)N[C@H](C(=O)N[C@@H](Cc1ccccc1)C(=O)N[C@@]1(C)CCC/C=C\CCC[C@@](C)(C(=O)N[C@@H](Cc2ccc(O)cc2)C(=O)N[C@@H](Cc2ccc(O)cc2)C(=O)NCC(=O)N[C@@H](CCC(=O)O)C(=O)N[C@@H](CCCCN)C(N)=O)NC(=O)[C@H](CC(C)C)NC(=O)[C@H]([C@@H](C)CC)NC(=O)[C@H](CC(=O)O)NC1=O)[C@@H](C)O [NYAD-23] (H-ITF[S5]DIL[S5]YYGEK-NH2; staple (Z) 4-8; N-terminus and C-terminus assumed)
IC50 [2]: 9.1 ± 0.74 µM
p24 and p55 levels in the cellular preparation [3]: dose-dependent decrease
p24 and p55 levels in the viral preparation (viral lysates) [3]: dose-dependent decrease

CC[C@H](C)[C@H](N)C(=O)N[C@@H](CO)C(=O)N[C@@H](Cc1ccccc1)C(=O)N[C@]1(C)CCCCCC/C=C\CCC[C@@](C)(C(=O)N[C@@H](CCC(=O)O)C(=O)N[C@@H](CO)C(=O)NCC(=O)N[C@@H](CO)C(N)=O)NC(=O)[C@H](Cc2ccc(O)cc2)NC(=O)[C@H](Cc2ccc(O)cc2)NC(=O)[C@H](CC(=O)O)NC(=O)[C@H](CC(C)C)NC(=O)[C@H](CC(C)C)NC(=O)[C@H](CCC(=O)O)NC1=O [NYAD-36] (H-ISF[R8]ELLDYY[S5]ESGS-NH2; staple (Z) 4-11)
ΔH [4]: −8.4 (±0.4) Kcal/mol
IC50 [2]: 1.5 ± 0.17 µM
solubility: < 100 µM
secondary structure by CD [5]: α-helical structure
p24 and p55 levels in the cellular preparation [3]: the same decrease was not detected
p24 and p55 levels in the viral preparation (viral lysates) [3]: dose-dependent decrease
viral infectivity of particles released by treated cells ([6]; 6.8 μM): very little to no viral infectivity
viral infectivity of particles released by treated cells ([6]; 13.5 μM): very little to no viral infectivity
infectivity respect to the control ([6]; about 7 μM): 7.7%

CC[C@H](C)[C@H](N)C(=O)N[C@@H](CO)C(=O)N[C@@H](Cc1ccccc1)C(=O)N[C@@]1(C)CCC/C=C\CCC[C@@](C)(C(=O)N[C@@H](Cc2ccc(O)cc2)C(=O)N[C@@H](Cc2ccc(O)cc2)C(=O)NCC(=O)N[C@@H](CCC(=O)O)C(=O)N[C@@H](CO)C(=O)NCC(=O)N[C@@H](CO)C(N)=O)NC(=O)[C@H](CC(C)C)NC(=O)[C@H]([C@@H](C)CC)NC(=O)[C@H](CCC(=O)O)NC1=O [NYAD-37] (H-ISF[S5]EIL[S5]YYGESGS-NH2; staple (Z) 4-8; N-terminus and C-terminus assumed)
IC50 [2]: 8 ± 0.36 µM
p24 and p55 levels in the cellular preparation [3]: dose-dependent decrease
p24 and p55 levels in the viral preparation (viral lysates) [3]: dose-dependent decrease
viral infectivity of particles released by treated cells ([6]; 15 μM): very little to no viral infectivity
viral infectivity of particles released by treated cells ([6]; 30 μM): very little to no viral infectivity

FITC-conjugated NYAD-1: NYAD-1 N-terminally derivatized with β-Ala and FITC ({FITC-βAla}-ITF[S5]DLL[S5]YYGP-NH2; staple 4-8; also: X4, X8 also described as (S)-2-(2'-pentenyl)alanine)
colocalization with gag-mStrawberry [7]: significant fraction colocalized

ITFEDLLDYYGP [CAI]
secondary structure in solution by CD ([5]; 20° C., Tris-HCl buffer pH 8.0, 1-15% acetonitrile): random coil structure
Kd [8]: ~15 µM

NYAD-41: SEQ ID NO:20, linear peptide corresponding to NYAD-36, used as control (ISFDELLDYYGESGS; Linear peptide NYAD-41)
secondary structure by CD [5]: random nature
